BigSolDB 2.1

O=C1NC(=O)c2ccccc21
solubility (mole fraction)
Details	in acetone	in acetonitrile	in ethanol	in ethyl acetate	in isobutanol	in isopropanol	in methanol	in n-butanol	in n-propanol	in toluene
283.15 K	0.00783	0.00145	0.00116	0.00388	0.0014	0.00159	0.00129	0.00166	0.00156	0.000253
285.65 K	0.00854	0.00161	0.00133	0.00441	0.00155	0.00175	0.00142	0.00185	0.00173	0.000295
288.15 K	0.00935	0.0018	0.00151	0.00498	0.00171	0.00198	0.00162	0.00203	0.00188	0.000348
290.65 K	0.0101	0.00209	0.0017	0.00557	0.0019	0.0022	0.00183	0.00221	0.00203	0.000401
293.15 K	0.011	0.00238	0.00193	0.00615	0.00206	0.00247	0.0021	0.00243	0.00222	0.000456
295.65 K	0.0119	0.00271	0.00215	0.00677	0.00222	0.0027	0.00236	0.00266	0.00242	0.000514
298.15 K	0.0128	0.00305	0.0024	0.00749	0.00242	0.00298	0.0026	0.00285	0.00263	0.000577
300.15 K	0.0137	0.00335	0.0026	0.00813	0.0026	0.0033	0.00288	0.00308	0.00282	0.000624
303.15 K	0.0149	0.00385	0.00302	0.00879	0.00292	0.00365	0.00317	0.00336	0.00308	0.000694
305.65 K	0.0159	0.0043	0.00335	0.0097	0.00315	0.00402	0.00346	0.00362	0.00339	0.000756
308.15 K	0.017	0.00472	0.00369	0.0105	0.0034	0.00438	0.00373	0.00393	0.00369	0.000828
310.65 K	0.0181	0.00518	0.00409	0.0114	0.00368	0.00479	0.00405	0.00424	0.00399	0.0009
313.15 K	0.0194	0.00577	0.00462	0.0125	0.00398	0.00523	0.00445	0.00456	0.0043	0.000969
315.65 K	0.0209	0.00631	0.00523	0.0138	0.00428	0.00575	0.00483	0.0049	0.00466	0.00105
318.15 K	0.0221	0.00686	0.00582	0.0152	0.00469	0.00632	0.00525	0.0054	0.005	0.00114
